Broadly, the IC50 is the midpoint of a concentration-inhibition curve. Read a high IC50 as weaker potency in that assay.

The assay deals with T1, CYP2C9.
T1 construct: gene Cyp2c11; 'CYP2C9' is the human name, rat has no CYP2C9, rat Cyp2c forms turn over the diclofenac probe
As to the kind of experiment: diclofenac probe turnover in rat liver microsomes, LC-MS/MS. Type of assay: biochemical. Conditions: 50 μM diclofenac; 0.5 mg/mL microsomal protein; 30 min incubation; 0-100 μM inhibitor. On the technique in general: Liver microsomes are a subcellular fraction often used to study metabolism.

Take `C=C(CC[C@@H](C(=O)O)[C@H]1[C@H](O)C[C@@]2(C)C3=C(CC[C@]12C)[C@@]1(C)CC[C@H](OC(C)=O)C(C)(C)[C@@H]1CC3)C(C)C` [pachymic acid]: the IC50 came to 21.2 µM.

These data come from publication PMC8439242, “Pharmacokinetic study on the interaction between pachymic acid and bavachin and its potential mechanism” (Pharmaceutical Biology, 2021).
